Laboratory results: the NIST ThermoML archive (doi:10.1021/je7003758)
Numbers after ± are expanded uncertainties.

Assay: xn = mol fraction of the nth substance listed
Conditions: 298.15 K, Liquid

CCCCCl [1-chlorobutane] + CN1CCCC1=O
mass density [kg/m3]
Conditions	x2 = 0.1004	x2 = 0.2002	x2 = 0.2974	x2 = 0.4	x2 = 0.5052	x2 = 0.6019	x2 = 0.7039	x2 = 0.8011	x2 = 0.9002
100 kPa	896.6 ± 0.3	912 ± 0.2	926.8 ± 0.2	942.2 ± 0.2	957.5 ± 0.2	971.7 ± 0.2	986.2 ± 0.2	1000.1 ± 0.2	1014.3 ± 0.2
500 kPa	896.9 ± 0.3	–	927.1 ± 0.2	942.5 ± 0.2	957.8 ± 0.2	972 ± 0.2	986.5 ± 0.2	1000.4 ± 0.2	1014.5 ± 0.2
600 kPa	–	912.3 ± 0.3	–	–	–	–	–	–	–
1000 kPa	897.4 ± 0.3	912.7 ± 0.3	927.5 ± 0.2	942.8 ± 0.2	958.2 ± 0.2	972.2 ± 0.2	986.8 ± 0.2	1000.6 ± 0.2	1014.8 ± 0.2
1500 kPa	897.9 ± 0.3	913.2 ± 0.3	927.9 ± 0.2	943.2 ± 0.2	958.6 ± 0.2	972.6 ± 0.2	987.1 ± 0.2	1000.9 ± 0.2	1015.1 ± 0.2
2000 kPa	898.4 ± 0.3	913.6 ± 0.3	928.4 ± 0.2	943.6 ± 0.2	958.9 ± 0.2	973 ± 0.2	987.4 ± 0.2	1001.2 ± 0.2	1015.3 ± 0.2
2400 kPa	–	–	928.7 ± 0.3	–	–	973.3 ± 0.2	–	–	–
2500 kPa	898.9 ± 0.3	914.1 ± 0.3	–	944 ± 0.2	959.3 ± 0.2	–	987.7 ± 0.2	1001.6 ± 0.2	1015.6 ± 0.2
3000 kPa	899.3 ± 0.3	914.6 ± 0.3	929.2 ± 0.3	944.4 ± 0.2	959.6 ± 0.2	973.6 ± 0.2	988 ± 0.2	1001.8 ± 0.2	1015.9 ± 0.2
3500 kPa	899.8 ± 0.3	915 ± 0.3	929.6 ± 0.3	944.8 ± 0.2	960 ± 0.2	973.9 ± 0.2	988.4 ± 0.2	1002.2 ± 0.2	1016.2 ± 0.2
3900 kPa	–	–	–	–	–	974.2 ± 0.2	–	–	–
4000 kPa	900.3 ± 0.3	915.4 ± 0.3	930 ± 0.3	945.1 ± 0.2	960.3 ± 0.2	–	988.7 ± 0.2	1002.4 ± 0.2	1016.5 ± 0.2
4400 kPa	900.7 ± 0.3	–	–	–	–	–	–	–	1016.7 ± 0.2
4500 kPa	–	915.9 ± 0.3	930.4 ± 0.3	945.6 ± 0.2	960.7 ± 0.2	974.6 ± 0.2	989 ± 0.2	1002.7 ± 0.2	–
4900 kPa	901.2 ± 0.3	–	–	–	–	–	–	–	–
5000 kPa	–	916.3 ± 0.3	930.8 ± 0.3	945.9 ± 0.2	961.1 ± 0.2	–	989.3 ± 0.2	1003 ± 0.2	1017 ± 0.2
5100 kPa	–	–	–	–	–	975 ± 0.2	–	–	–
5400 kPa	901.7 ± 0.3	–	–	–	–	975.2 ± 0.2	–	–	–
5500 kPa	–	916.8 ± 0.3	931.2 ± 0.3	946.3 ± 0.3	961.4 ± 0.2	–	989.6 ± 0.2	1003.3 ± 0.2	1017.3 ± 0.2
5900 kPa	–	917.1 ± 0.3	–	–	–	–	–	–	–
6000 kPa	902.1 ± 0.3	–	931.7 ± 0.3	946.7 ± 0.3	961.8 ± 0.2	975.6 ± 0.2	990 ± 0.2	1003.6 ± 0.2	1017.6 ± 0.2
6500 kPa	902.6 ± 0.3	917.6 ± 0.3	932.1 ± 0.3	947.1 ± 0.3	962.2 ± 0.2	976 ± 0.2	990.2 ± 0.2	1003.9 ± 0.2	1017.8 ± 0.2
6900 kPa	903 ± 0.3	–	932.5 ± 0.3	–	–	–	–	–	–
7000 kPa	–	918.1 ± 0.3	–	947.5 ± 0.3	962.5 ± 0.2	976.3 ± 0.2	990.6 ± 0.2	1004.2 ± 0.2	1018.2 ± 0.2
7500 kPa	903.5 ± 0.3	918.5 ± 0.3	932.8 ± 0.3	–	962.9 ± 0.2	976.6 ± 0.2	990.9 ± 0.2	1004.5 ± 0.2	1018.4 ± 0.2
7600 kPa	–	–	–	948 ± 0.3	–	–	–	–	–
7900 kPa	903.9 ± 0.3	–	–	–	–	–	991.1 ± 0.2	–	–
8000 kPa	–	918.9 ± 0.3	933.3 ± 0.3	948.3 ± 0.3	963.2 ± 0.2	976.9 ± 0.2	–	1004.8 ± 0.2	1018.7 ± 0.2
8400 kPa	–	919.3 ± 0.3	–	–	–	–	–	–	–
8500 kPa	904.4 ± 0.3	–	933.6 ± 0.3	948.6 ± 0.3	963.6 ± 0.2	977.2 ± 0.2	991.5 ± 0.2	1005.1 ± 0.2	1019 ± 0.2
8900 kPa	–	919.7 ± 0.3	–	–	–	977.5 ± 0.2	991.7 ± 0.2	–	–
9000 kPa	904.9 ± 0.3	–	933.9 ± 0.3	949 ± 0.3	963.9 ± 0.2	–	–	1005.4 ± 0.2	1019.2 ± 0.2
9400 kPa	–	–	934.3 ± 0.3	–	–	–	992 ± 0.2	–	–
9500 kPa	905.3 ± 0.3	920.2 ± 0.3	–	949.3 ± 0.3	964.2 ± 0.2	977.9 ± 0.2	–	1005.6 ± 0.2	1019.5 ± 0.2
9900 kPa	–	–	934.8 ± 0.3	–	–	–	–	–	–
10000 kPa	905.8 ± 0.3	920.7 ± 0.3	–	949.8 ± 0.3	–	–	–	–	–
